Patent publication EP4582094A1, “ISCHEMIA-REPERFUSION INJURY INHIBITOR” (Tohoku University, priority 2022, dated 2024)

Key:
[1] = system: HeLa cells; test: Mitochondrial membrane potential, JC-10 staining; assay type: cell-based; details: GSSSG added to medium at 1 µM, 10 µM and 100 µM; 24 hours; even at a low concentration; FIG. 3
Experimental: HeLa cells were cultured in DMEM (low glucose) medium containing 10% FBS, and GSSSG was added to the medium at different concentrations (1 µM, 10 µM and 100 µM). The cells were stained with JC-10, which is a reagent for detecting mitochondrial membrane potential, after 24 hours and observed with a confocal microscope, and the fluorescent intensities were measured with a plate reader.

[2] = system: IL6; test: RT-PCR gene expression of inflammatory cytokines in lung tissue after IRI; assay type: in vivo, C57BL/6J mice; details: lung tissue after the IRI; GSSSG administration group vs control; FIG. 2
Experimental: (§1) An intervention group (N = 4) in which 500 µL of the GSSSG solution was intraperitoneally administered to C57BL/6J mice (22 months old, male) an hour before pulmonary hilum clamping surgery and a control group (N = 4) in which 500 µL of normal saline solution (NSS) was intraperitoneally administered were set. The pulmonary hilum structure was clamped together for 60 minutes, and the IRI was evaluated an hour and a day after releasing clamping.
(§2) The inflammation due to the IRI was evaluated with gene expression of inflammatory cytokines in lung tissue. The wet to dry weight ratios were evaluated with N = 4 in each group, and the other items were evaluated with N = 5-6 in each group.

[3] = system: IL10; test: as above; assay type: in vivo, C57BL/6J mice; details: lung tissue after the IRI; GSSSG administration group vs control; FIG. 2
Experimental: as §1, §2

[4] = system: TNFα; test: as above; assay type: in vivo, C57BL/6J mice; details: lung tissue after the IRI; GSSSG administration group vs control; FIG. 2
Experimental: as §1, §2

[5] = system: IL1b; test: as above; assay type: in vivo, C57BL/6J mice; details: lung tissue after the IRI; GSSSG administration group vs control; FIG. 2
Experimental: as §1, §2

[6] = Rat isogeneic lung transplantation: ischemia-reperfusion injury after lung preservation; assay type: in vivo, Lewis rats; details: lung preservation solution containing 300 µM GSSSG, six hours at 4°C, an hour after the reperfusion, vs control group
Experimental: In the GSSSG group (n=3), ET-TU solution containing GSSSG was used as the lung preservation solution. The GSSSG concentration was 300 µM, at which GSSSG could be mixed into EP-TU while maintaining pH 7 in a preliminary experiment. In the control group (n=3), ET-TU solution was used as it was as the lung preservation solution. As the rats, Lewis rats (male, 13-18 weeks, 275-350 g) were used both as the donors and the recipients.
The left lung of a donor was preserved for six hours at 4°C using the lung preservation solution (EP-TU) and transplanted into the left lung of a recipient rat. After reperfusion for an hour after the lung transplantation, the right pulmonary hilum (pulmonary artery and vein/bronchus) was blocked, and the degree of ischemia-reperfusion injury of the left lung was evaluated. As indicators for ischemia-reperfusion injury, the weight gain of the grafted lung (weight after transplantation - weight before transplantation) and the arterial oxygen tension (PaO2) after blocking the right pulmonary hilum were used.

[7] = Mouse lung ischemia-reperfusion injury (pulmonary hilum clamping): physiological and histopathological evaluation of pulmonary edema; assay type: in vivo, C57BL/6J mice
Experimental: GSSSG (MW 644) was dissolved in 0.1 M HCl to 25 mM GSSSG. Next, 20 µL of 25 mM GSSSG was added to 50 µL of 10x PBS and 430 µL of DW, and thus 500 µL of GSSSG solution (1 mM, 322 µg GSSSG) was adjusted in the end.
as §1
The wet to dry weight ratios were measured as physiological evaluation of pulmonary edema due to the IRI (N = 4 in each group).
The alveolar edema was scored, and the edema around the pulmonary arteries was quantified as histopathological evaluation of pulmonary edema due to the IRI (N = 6 in each group). The scoring was conducted according to the criteria below, and an average of 10 fields was calculated for each mouse. Regarding the edema around the pulmonary arteries, three to five pulmonary arteries per mouse were extracted, and an average of the area ratios of the pulmonary artery and the edema around the artery was calculated.
• 0 = no finding • 1 = finding in 1-25% • 2 = finding in 26-50% • 3 = finding in 51-75% • 4 = finding in 76-100%

For `N[C@@H](CCC(=O)N[C@@H](CSSSC[C@H](NC(=O)CC[C@H](N)C(=O)O)C(=O)NCC(=O)O)C(=O)NCC(=O)O)C(=O)O` [GSSSG, glutathione trisulfide], the mitochondrial membrane potential [1] was “increased with a significance”, the “gene expression of IL6” value [2] was “decreased with a significance” and the “gene expression of IL10” value [3] was “decreased with a significance”. For the same compound, the “gene expression of TNFα” value [4] was “no difference was observed”, the “gene expression of IL1b” value [5] was “no difference was observed” and the “arterial oxygen tension (PaO2) after blocking the right pulmonary hilum” value ([6]; FIG. 10A) was “improved”. For the same compound, the “weight gain of the grafted lung” value ([6]; FIG. 10B) was “decreased”, the “edema around the pulmonary arteries” value ([7]; 500 µL GSSSG solution (1 mM) intraperitoneally an hour before clamping, area ratio of pulmonary artery and edema around it, vs control group, FIG. 1c) was “relief of pulmonary edema was observed” and the “score of alveolar edema” value ([7]; 500 µL GSSSG solution (1 mM) intraperitoneally an hour before clamping, histopathological evaluation, vs control group, FIG. 1b) was “relief of pulmonary edema was observed”. For the same compound, the “wet to dry weight ratio” value ([7]; 500 µL GSSSG solution (1 mM, 322 µg) intraperitoneally an hour before 60 min pulmonary hilum clamping, 22 months old male mice, an hour and a day after the IRI, vs control group (NSS), FIG. 1a) was “decreased with a significance”.
